Data taken from patent publication US10952436B2, “Microbiocidal quinoline (thio)carboxamide derivatives” (SYNGENTA PARTICIPATIONS AG, priority 2017, dated 2021).

Experiments:
[1] = tested on: Botryotinia fuckeliana (Botrytis cinerea); experiment: Botryotinia fuckeliana (Botrytis cinerea)/Liquid Culture (Gray Mould); format: cell-based; conditions: 200 ppm, liquid culture, compared to untreated control, 3-4 days after application, read-out: control of Botryotinia fuckeliana
Fusarium culmorum [2] = experiment: microbe, parasite or virus in culture; format: cell-based; conditions: read-out: control of Fusarium culmorum
Fusarium culmorum [3] = experiment: whole plant or invertebrate; format: in vivo; conditions: in Triticum aestivum, read-out: control of Fusarium culmorum
[4] = tested on: Glomerella lagenarium (Colletotrichum lagenarium); experiment: Glomerella lagenarium (Colletotrichum lagenarium)/Liquid Culture (Anthracnose); format: cell-based; conditions: Colletotrichum orbiculare; 200 ppm; liquid culture, compared to untreated control, 3-4 days after application; read-out: control of Glomerella lagenarium
[5] = tested on: Monographella nivalis (Microdochium nivale); experiment: Monographella nivalis (Microdochium nivale)/Liquid Culture (Foot Rot Cereals); format: cell-based; conditions: 200 ppm, liquid culture, compared to untreated control, 4-5 days after application, read-out: control of Monographella nivalis
[6] = tested on: Magnaporthe grisea (Pyricularia oryzae); experiment: microbe, parasite or virus in culture; format: cell-based; conditions: read-out: control of Magnaporthe grisea

COC(C)(Cc1ccccc1)C(=O)Nc1cc2cccc(F)c2nc1C (centres unmarked) [Compound E-41, N-(8-fluoro-2-methyl-3-quinolyl)-2-methoxy-2-methyl-3-phenyl-propanamide]
≥ 80%: inhibition of growth at 200 ppm [1] | inhibition of growth at 200 ppm (Fusarium culmorum [2]) | pest or weed control at 200 ppm (Fusarium culmorum [3]) | inhibition of growth at 200 ppm [4] | inhibition of growth at 200 ppm [5] | inhibition of growth at 200 ppm [6]

CC(C)CC(Cc1ccccc1)C(=O)Nc1cnc2c(F)cccc2c1 (centres unmarked) [Compound E-35, 2-benzyl-N-(8-fluoro-3-quinolyl)-4-methyl-pentanamide]
≥ 80%: inhibition of growth at 200 ppm [1] | inhibition of growth at 200 ppm (Fusarium culmorum [2]) | pest or weed control at 200 ppm (Fusarium culmorum [3]) | inhibition of growth at 200 ppm [4] | inhibition of growth at 200 ppm [6]

Cc1nc2c(F)cccc2cc1NC(=O)C(C)(Cc1ccccc1)CC(C)C (centres unmarked) [Compound E-86, 2-benzyl-N-(8-fluoro-2-methyl-3-quinolyl)-2,4-dimethyl-pentanamide]
≥ 80%: inhibition of growth at 200 ppm [1] | inhibition of growth at 200 ppm (Fusarium culmorum [2]) | pest or weed control at 200 ppm (Fusarium culmorum [3]) | inhibition of growth at 200 ppm [4] | inhibition of growth at 200 ppm [5]

CC(C=C(F)F)(Cc1ccccc1)C(=O)Nc1cnc2c(F)cccc2c1 (centres unmarked) [Compound E-57, 2-benzyl-4,4-difluoro-N-(8-fluoro-3-quinolyl)-2-methyl-but-3-enamide]
≥ 80%: inhibition of growth at 200 ppm [1] | inhibition of growth at 200 ppm (Fusarium culmorum [2]) | pest or weed control at 200 ppm (Fusarium culmorum [3]) | inhibition of growth at 200 ppm [4] | inhibition of growth at 200 ppm [5] | inhibition of growth at 200 ppm [6]

CC(C)C[C@](C)(Cc1ccccc1)C(=O)Nc1cnc2c(F)cccc2c1 [Compound F-19, (2R)-2-benzyl-N-(8-fluoro-3-quinolyl)-2,4-dimethyl-pentanamide]
≥ 80%: inhibition of growth at 200 ppm [1] | inhibition of growth at 200 ppm (Fusarium culmorum [2]) | pest or weed control at 200 ppm (Fusarium culmorum [3]) | inhibition of growth at 200 ppm [4]

CC(C)CC(C)(Cc1cccc(F)c1)C(=O)Nc1cnc2c(F)cccc2c1 (centres unmarked) [Compound E-7, 2-[(3-fluorophenyl)methyl]-N-(8-fluoro-3-quinolyl)-2,4-dimethyl-pentanamide]
≥ 80%: inhibition of growth at 200 ppm [1] | inhibition of growth at 200 ppm (Fusarium culmorum [2]) | inhibition of growth at 200 ppm [4] | inhibition of growth at 200 ppm [5] | inhibition of growth at 200 ppm [6]

C[C@@](Cc1ccccc1)(CC(F)(F)F)C(=O)Nc1cnc2c(F)cccc2c1 (single isomer, unassigned) [Compound F-24]
≥ 80%: inhibition of growth at 200 ppm [1] | inhibition of growth at 200 ppm (Fusarium culmorum [2]) | pest or weed control at 200 ppm (Fusarium culmorum [3]) | inhibition of growth at 200 ppm [4] | inhibition of growth at 200 ppm [5] | inhibition of growth at 200 ppm [6]

C[C@@](Cc1ccccc1)(CC(F)(F)F)C(=O)Nc1cnc2c(F)c(F)ccc2c1 [Compound F-16, (2R)-2-benzyl-N-(7,8-difluoro-3-quinolyl)-4,4,4-trifluoro-2-methyl-butanamide]
≥ 80%: inhibition of growth at 200 ppm [1] | inhibition of growth at 200 ppm (Fusarium culmorum [2]) | inhibition of growth at 200 ppm [4] | inhibition of growth at 200 ppm [5] | inhibition of growth at 200 ppm [6]

Cc1cccc2cc(NC(=O)[C@](C)(Cc3ccccc3)CC(F)(F)F)cnc12 [Compound F-18, (2R)-2-benzyl-4,4,4-trifluoro-2-methyl-N-(8-methyl-3-quinolyl)butanamide]
≥ 80%: inhibition of growth at 200 ppm [1] | inhibition of growth at 200 ppm (Fusarium culmorum [2]) | inhibition of growth at 200 ppm [4] | inhibition of growth at 200 ppm [5] | inhibition of growth at 200 ppm [6]
